Assay results: patent US10807960B2, “Compounds, compositions, and methods for controlling biofilms” (KATHOLIEKE UNIVERSITEIT LEUVEN, priority 2015, dated 2020)
Where two headings read alike, the source gives them in different places.

What was measured:
[1] = system: P. gingivalis ATCC33277; experiment: static peg (Calgary Biofilm Device) anti-biofilm assay, crystal violet and OD600
[2] = system: B. cepacia LMG1222T; experiment: as above; conditions: for IC50: 25° C.
[3] = system: S. liquefaciens MG44; experiment: as above; format: cell-based, Serratia liquefaciens; conditions: 25° C.
[4] = system: S. epidermidis; experiment: as above; conditions: for IC50: 37° C.
[5] = system: S. aureus SH1000; experiment: as above; conditions: for IC50: 37° C.
[6] = system: S. Typhimurium ATCC14028; experiment: as above
[7] = system: S. aureus ATCC6538; experiment: as above; conditions: 37° C.
[8] = system: S. aureus ATCC6538 + S. epidermidis; experiment: mixed S. aureus/S. epidermidis biofilm assay, crystal violet; format: cell-based; conditions: 37° C. (Table 3)
Method: Overnight cultures of S. aureus ATCC6538 and S. epidermidis were grown in LB medium and were diluted 1/200 in the same vial of TSB to form a mixed culture suspension.

[9] = system: E. coli TG1; experiment: static peg (Calgary Biofilm Device) anti-biofilm assay, crystal violet and OD600; conditions: for IC50: 37° C.
[10] = system: P. aeruginosa PA14; experiment: as above
[11] = system: E. coli TG1 + P. aeruginosa PA14; experiment: mixed E. coli/P. aeruginosa biofilm assay, crystal violet; format: cell-based; conditions: for IC50: 37° C. (Table 3)
Method: Overnight cultures of E. coli TG1 and P. aeruginosa PA14, were diluted 1/100 in the same vial of TSB 1/20 to form a mixed culture suspension.

[12] = system: C. albicans SC5314; experiment: inhibition of C. albicans biofilms, cell titer blue (CTB) quantification; format: cell-based, Candida albicans; conditions: for IC50: biofilm formation, 37° C., read-out: BIC50
Method: The potential of the compounds to prevent C. albicans SC5314 biofilm formation was assessed using the cell titer blue (CTB) quantification method (26). For the CTB method, an overnight culture of C. albicans SC5314 was washed with PBS and a cell suspension of 10^6 cells/ml (OD600=0.1) was prepared in RPMI 1640 medium (pH 7.0). […] After 16 h of static incubation at 37° C., biofilms were washed and quantified with CTB as described previously.

[13] = system: C. albicans SC5314 + S. epidermidis; experiment: mixed C. albicans/S. epidermidis biofilm assay, selective plating; format: cell-based, Candida albicans; Staphylococcus epidermidis; conditions: for activity at 100 µM: 100 μM (Table 5); for activity at 25 µM: 25 μM (Table 5)
Method: The concentrations 25 μM (0.0625% DMSO or ethanol) and 100 μM (0.25% DMSO or ethanol) were tested. After 24 h of incubation at 37° C., biofilms were washed with PBS and fresh medium with or without compounds was added. After further incubation for 48 h at 37° C., the biofilms were washed with PBS after which the cells were re-suspended in 100 μl of PBS by scraping off, sonication (1 min, 45 kHz, USC300-T; VWR, Radnor, Pa., USA) and vigorously pipetting up-and-down. Finally, the biofilm cells were diluted in PBS and plated on YPD agar plates containing 100 mg/L ampicillin and TSA plates containing 25 mg/L amphotericin B, to determine the number of fungal and bacterial CFUs after 2 days of incubation at 37° C., respectively. The percentage of C. albicans SC5314 and S. epidermidis cells was determined relative to the DMSO or ethanol control treatment.

[14] = system: osteoblasts (OB); experiment: mammalian-cell viability assay, trypan blue staining; format: cell-based; conditions: 12.5 μM, 6 days exposure
Method: (§1) Cell viability of two human primary cell types, namely, osteoblasts (OB) and bone-marrow derived mesenchymal stem cells (MSC) was tested according to the ISO 10993-5 standard, as previously described. Briefly, cells were seeded in 96-well tissue culture test plates (TPP, Switzerland) at 5×10^3 cells/cm^2 in Advanced DMEM cell culture media supplemented with 10% serum, 1× GlutaMAX, 0.05 mg/mL Gentamycin, and were allowed to attach overnight. The next day, the cells were exposed to (i) cell culture medium and medium with the corresponding control (0.5% ethanol or DMSO) (negative controls), (ii) medium with 0.05% phenol (cytotoxic control), and (iii) medium with compounds (12.5 μM) and incubated for 2 h, 48 h and 6 days (8 repeats for each condition). At each time-point the numbers of viable and dead cells were determined directly by trypan blue staining, and indirectly by measuring the metabolic activity with MTT (3-(4,5-dimethylthiazol-2-yl)-2,5-diphenyltetrazolium bromide) staining.
(§2) The medium was removed from the wells, and 1/3 trypan blue in Dulbecco's modified Eagle's medium (DMEM) was added to the cells, incubated for 3 min, after which trypan blue was removed and DMEM medium was added to the wells. In each of four wells, two microscopy fields were counted for viable (transparent) and dead (blue) cells.

[15] = system: bone-marrow derived mesenchymal stem cells (MSC); experiment: as above; format: cell-based; conditions: 12.5 μM, 6 days exposure
Method: as §1, §2

[16] = system: osteoblasts (OB); experiment: osteogenic differentiation, calcium and DNA assay; format: cell-based, human; conditions: 12.5 μM, calcium content normalized by DNA, versus solvent control
Method: (§3) The effect on osteogenic differentiation potential was assessed as previously described. Only the substances that allowed survival of the cells for more than 3 weeks, which is the time needed for mature osteogenic differentiation, were tested. Briefly, osteoblasts and bone-marrow derived mesenchymal stem cells were cultured in a positive solvent control (osteogenic medium with 0.5% DMSO or ethanol background), a negative control (medium without osteogenic supplements) and treated samples (osteogenic medium, 0.5% DMSO or ethanol background and 12.5 μM of test compound) with four repeats per condition. Mesenchymal stem cells and osteoblast cell cultures were harvested after 3 or 5 weeks, respectively, for the calcium and DNA assay.
(§4) Calcium deposition of osteoblasts and mesenchymal stem cells was measured with the Calcium CPC LiquiColor test (Stanbio Laboratory, Boerne, Tex.) as previously described. Briefly, cell cultures were extracted with 5% trichloroacetic acid (500 μl per sample), O-cresolphtalein complex was added, and the calcium content was determined spectrophotometrically at 550 nm. DNA content was determined as previously described. DNA values were used to normalize the calcium content. Four wells per condition were examined, and two samples from each well were taken for each assay.

[17] = system: bone-marrow derived mesenchymal stem cells (MSC); experiment: osteogenic differentiation, calcium and DNA assay; format: cell-based, human; conditions: 12.5 μM, calcium content normalized by DNA, versus solvent control
Method: as §3, §4

[18] = read-out: BIC50, biofilm formation, 37° C.
[19] = read-out: BIC50, biofilm formation
[20] = biofilm formation, read-out: BIC50
[21] = planktonic growth, read-out: IC50
[22] = read-out: BIC50, biofilm formation, 25° C.
[23] = mixed biofilm formation, read-out: BIC50
[24] = planktonic growth of mixed culture, read-out: IC50
[25] = C. albicans in mixed biofilm with S. epidermidis, read-out: CFUs % survival C.a.
[26] = S. epidermidis in mixed biofilm with C. albicans, read-out: CFUs % survival Se.

`CCCCNc1ncc(-c2ccc(Br)cc2)[nH]1` [Compound 4] was tested, and the IC50 ([1]; planktonic growth, 37° C.) was 8.2 µM, the IC50 [1, 18] was 3.7 µM and the IC50 ([2]; planktonic growth) was > 400 µM. For the same molecule, the IC50 [2, 19] was 189 µM, the IC50 [3, 20] was 4.4 µM and the IC50 [3, 21] was 118 µM. The IC50 ([4]; planktonic growth) was 54.4 µM, the IC50 [4, 19] was > 400 µM and the IC50 ([5]; planktonic growth) was 89.4 µM. It also gave an IC50 [5, 19] of 66.5 µM, an IC50 [6, 22] of 7.1 µM and an IC50 ([7]; planktonic growth) of 60.1 µM. It also gave an IC50 [7, 19] of ~12.3 µM, an IC50 [8, 23] of 6.8 µM and an IC50 [8, 24] of ~118 µM. For the same molecule, the IC50 ([9]; planktonic growth) was 23 µM, the IC50 [9, 19] was 84.7 µM and the IC50 ([10]; planktonic growth, 37° C.) was > 400 µM. For the same molecule, the IC50 [10, 22] was 9.8 µM, the IC50 [10, 18] was > 400 µM and the IC50 [11, 23] was 17.8 µM. The IC50 [11, 24] was > 400 µM and the IC50 [12] was 66.7 µM.
`Brc1ccc(-c2cnc(NCCn3cc(C4CC4)nn3)[nH]2)cc1` [Compound 6] was tested, and the IC50 ([1]; planktonic growth, 37° C.) was 19.5 µM, the IC50 [1, 19] was 18.1 µM and the “anti-biofilm activity (in words)” value ([2]; monospecies biofilm) was “No activity”. The IC50 ([2]; planktonic growth) was > 400 µM, the IC50 [2, 19] was > 400 µM and the IC50 [3, 20] was 63.3 µM. The IC50 [3, 21] was > 400 µM, the “anti-biofilm activity (in words)” value ([4]; monospecies biofilm) was “No activity” and the IC50 ([4]; planktonic growth) was > 400 µM. The IC50 [4, 19] was > 400 µM, the “anti-biofilm activity (in words)” value ([5]; monospecies biofilm) was “No activity” and the IC50 ([5]; planktonic growth) was > 400 µM. For the same molecule, the IC50 [5, 19] was > 400 µM, the IC50 ([6]; planktonic growth, 25° C.) was 2.4 µM and the IC50 [6, 19] was 2 µM. For the same molecule, the IC50 ([7]; planktonic growth) was > 400 µM, the IC50 [7, 19] was 75.2 µM and the IC50 [8, 23] was 33.9 µM. It also gave an IC50 [8, 24] of ~392 µM, an IC50 ([9]; planktonic growth) of 183 µM and an IC50 [9, 19] of ~192 µM. The “anti-biofilm activity (in words)” value ([10]; monospecies biofilm, 37° C.) was “No activity”, the IC50 ([10]; planktonic growth, 25° C.) was > 400 µM and the IC50 ([10]; planktonic growth, 37° C.) was > 400 µM. For the same molecule, the IC50 [10, 22] was 71.6 µM, the IC50 [10, 18] was > 400 µM and the IC50 [11, 23] was 34.6 µM. The IC50 [11, 24] was > 400 µM, the IC50 [12] was > 400 µM and the “anti-biofilm activity (in words)” value ([12]; monospecies biofilm, novel compounds: highest concentration tested 100 μM) was “No activity”.
`CCCCCCCCn1c(-c2ccccc2)cnc1NCC(C)C` [Compound 8a, N-isobutyl-1-octyl-5-phenyl-1H-imidazol-2-amine] was tested, and the activity at 100 µM [13, 25] was 1%, the activity at 100 µM [13, 26] was 1% and the “proliferation (in words)” value [14] was “slightly reduced”. For the same molecule, the “proliferation (in words)” value [15] was “slightly reduced”, the “anti-biofilm activity (in words)” value ([9]; biofilm at 37° C.) was “showed activity” and the “anti-biofilm activity (in words)” value ([9]; biofilm cells at 25° C.) was “potent activity”. For the same molecule, the “inhibition of the mixed biofilm P. aeruginosa/E. coli (in words)” value [11] was “strongly inhibited”.
`CCCCCCCCn1c(-c2ccc(Cl)cc2)cnc1NCC(C)C` [Compound 8b, 5-(4-chlorophenyl)-N-isobutyl-1-octyl-1H-imidazol-2-amine] was tested, and the activity at 25 µM [13, 25] was 2%, the activity at 25 µM ([13]; S. epidermidis in mixed biofilm with C. albicans, read-out: CFUs % survival S.c.) was 6.1% and the activity at 100 µM [13, 26] was 0.7%. The “calcium deposition (in words)” value [16] was “induced the calcium deposition”, the “calcium deposition (in words)” value [17] was “induced the calcium deposition” and the “anti-biofilm activity (in words)” value ([9]; biofilm cells at 25° C.) was “potent activity”.
